Counter-ions that a name gives are not always drawn.

A word on the IC50: it is the midpoint of a concentration-inhibition curve. A high value points to weaker potency.

The target of experiment [1] is Gastrin/cholecystokinin type B receptor (Oryctolagus cuniculus). Put plainly: In vitro inhibition of gastrin-induced [Ca2+] cytosolic elevation in isolated rabbit parietal cells.
Experiment [2] concerns the target Gastrin/cholecystokinin type B receptor (Cavia porcellus). Put plainly: Inhibition of binding of [3H]N-Me-N-Leu-CCK-8 to cholecystokinin type B receptor in guinea pig brain cortex.

Turning to `O=C(O)CC[C@H](NC(=O)CCC(NC(=O)c1cc(Cl)cc(Cl)c1)C(=O)N1CCC2(CCCC2)CC1)C(=O)Nc1cccc2ncccc12` (stereo partly drawn) [(S)-4-[5-(8-Aza-spiro[4.5]dec-8-yl)-4-(3,5-dichloro-benzoylamino)-5-oxo-pentanoylamino]-4-(quinolin-5-ylcarbamoyl)-butyric acid; hydrochloride], the IC50 came out at 76 nM in experiment [1] and 136 nM in experiment [2].
Take `O=C(O)CC[C@H](NC(=O)CCC(NC(=O)c1cc(Cl)cc(Cl)c1)C(=O)N1CCC2(CCCC2)CC1)C(=O)Nc1cccc2cccnc12` (stereo partly drawn) [(S)-4-[5-(8-Aza-spiro[4.5]dec-8-yl)-4-(3,5-dichloro-benzoylamino)-5-oxo-pentanoylamino]-4-(quinolin-8-ylcarbamoyl)-butyric acid; hydrochloride]: the IC50 was 54 nM in experiment [1] and 108 nM in experiment [2].
Regarding `CCCCCN(CCCCC)C(=O)[C@H](CCC(=O)O)NC(=O)CCC(NC(=O)c1cc(Cl)cc(Cl)c1)C(=O)N1CCC2(CCCC2)CC1` (stereo partly drawn) [(S)-4-[5-(8-Aza-spiro[4.5]dec-8-yl)-4-(3,5-dichloro-benzoylamino)-5-oxo-pentanoylamino]-4-dipentylcarbamoyl-butyric acid], the IC50 in experiment [1] was 48 nM; in experiment [2], 135 nM.
Consider `CCCN(CCC)C(=O)[C@H](CCC(=O)O)NC(=O)CCC(NC(=O)c1cc(Cl)cc(Cl)c1)C(=O)N1CCC2(CCCC2)CC1` (stereo partly drawn) [(S)-4-[5-(8-Aza-spiro[4.5]dec-8-yl)-4-(3,5-dichloro-benzoylamino)-5-oxo-pentanoylamino]-4-dipropylcarbamoyl-butyric acid], for which the half-maximal inhibitory concentration (IC50) is 119 nM in experiment [1] and 299 nM in experiment [2].
As for `O=C(O)CC[C@H](NC(=O)CCC(NC(=O)c1cc(Cl)cc(Cl)c1)C(=O)N1CCC2(CCCC2)CC1)C(=O)N1CCc2ccccc2C1` (stereo partly drawn) [(S)-4-[5-(8-Aza-spiro[4.5]dec-8-yl)-4-(3,5-dichloro-benzoylamino)-5-oxo-pentanoylamino]-5-(3,4-dihydro-1H-isoquinolin-2-yl)-5-oxo-pentanoic acid], the figures for the IC50 in experiment [1] and in experiment [2] were 49 nM and 140 nM, respectively.
Taken in the same sequence, the figures for `O=C(O)CC[C@H](NC(=O)CCC(NC(=O)c1cc(Cl)cc(Cl)c1)C(=O)N1CCC2(CCCC2)CC1)C(=O)N1CCC2CCCCC2C1` (stereo partly drawn) [(S)-4-[5-(8-Aza-spiro[4.5]dec-8-yl)-4-(3,5-dichloro-benzoylamino)-5-oxo-pentanoylamino]-5-(octahydro-isoquinolin-2-yl)-5-oxo-pentanoic acid] were 28 nM and 185 nM.
On to `O=C(O)CC[C@H](NC(=O)CCC(NC(=O)c1cc(Cl)cc(Cl)c1)C(=O)N1CCC2(CCCC2)CC1)C(=O)N1CCC2(CCCC2)CC1` (stereo partly drawn) [(S)-5-(8-Aza-spiro[4.5]dec-8-yl)-4-[5-(8-aza-spiro[4.5]dec-8-yl)-4-(3,5-dichloro-benzoylamino)-5-oxo-pentanoylamino]-5-oxo-pentanoic acid], for which the IC50 in experiment [1] amounted to 37 nM; in experiment [2], 141 nM.
Turning to `O=C(O)CNC(=O)CCC(NC(=O)c1cc(Cl)cc(Cl)c1)C(=O)N1CCC2(CCCC2)CC1` (stereo not given) [[5-(8-Aza-spiro[4.5]dec-8-yl)-4-(3,5-dichloro-benzoylamino)-5-oxo-pentanoylamino]-acetic acid], the IC50 in experiment [1] was 1040 nM; in experiment [2], 1020 nM.
Consider `O=C(CCC(NC(=O)c1cc(Cl)cc(Cl)c1)C(=O)N1CCC2(CCCC2)CC1)NC(C(=O)O)c1ccccc1` (stereo not given) [[5-(8-Aza-spiro[4.5]dec-8-yl)-4-(3,5-dichloro-benzoylamino)-5-oxo-pentanoylamino]-phenyl-acetic acid], for which the values for the IC50 in experiment [1] and in experiment [2] were 80 nM and 390 nM, respectively.
Take `CN(CC(=O)O)C(=O)CCC(NC(=O)c1cc(Cl)cc(Cl)c1)C(=O)N1CCC2(CCCC2)CC1` (stereo not given) [{[5-(8-Aza-spiro[4.5]dec-8-yl)-4-(3,5-dichloro-benzoylamino)-5-oxo-pentanoyl]-methyl-amino}-acetic acid]: the IC50 worked out at 2810 nM in experiment [1] and 1570 nM in experiment [2].

For the origin of these results see BindingDB's records for doi:10.1021/jm950372w (Rotta Research Laboratorium, 1996).
